The text below walks through data of ChEMBL document CHEMBL3784978, “Stabilization of G-quadruplex DNA and inhibition of Bcl-2 expression by a pyridostatin analog” (Bioorg Med Chem Lett, 2016).

Calls of active or inactive are those of the source. No cut-off for these calls is given here.

Assay [1] can be described thus: Binding affinity to Bcl2 G-quadraplex DNA (unknown origin) assessed as binding constant at 8 uM by Stern-Volmer plot analysis in the presence of KCl and NaCl.
The nature of assay [2]: Binding affinity to duplex ds26 DNA (unknown origin) assessed as binding constant at 8 uM by Stern-Volmer plot analysis in the presence of KCl and NaCl.
The nature of assay [3]: Binding affinity to duplex ds20 DNA (unknown origin) assessed as binding constant at 8 uM by Stern-Volmer plot analysis in the presence of KCl and NaCl.
Assay [4] is described as follows: Ratio of binding affinity to Bcl2 G-quadruplex DNA (unknown origin) to binding affinity to duplex ds20 DNA (unknown origin).
A short description of assay [5]: Ratio of binding affinity to Bcl2 G-quadruplex DNA (unknown origin) to binding affinity to duplex ds26 DNA (unknown origin).
Assay [6] in a line: Binding affinity to Bcl2 G-quadraplex DNA (unknown origin) assessed as melting temprature at 2 uM by circular dichroism spectroscopic analysis in the presence of KCl and NaCl.
Assay [7] relates to HEp-2. Put plainly: Binding affinity to Bcl2 G-quadraplex DNA in human Hep2 cells assessed as reduction in Bcl-2 gene levels by real-time PCR method. The format is cell-based. (In general: Real-time PCR tracks product formation cycle by cycle.)
Assay [8] relates to HEp-2. As to the kind of experiment: Binding affinity to Bcl2 G-quadraplex DNA in human Hep2 cells assessed as reduction in Bcl-2 expression co-transfected in pRL-TK plasmid vector after 48 hrs by dual-luciferase reporter assay. Type of assay: cell-based.
A further assay is filed under the species Homo sapiens. As to the kind of experiment: Binding affinity to duplex ds26 DNA (unknown origin) assessed as melting temprature at 12 uM by circular dichroism spectroscopic analysis in the presence of KCl and NaCl. On the technique in general: Circular dichroism is widely used to follow secondary structure.
Assay [9] deals with HEp-2. Put plainly: Antiproliferative activity against human Hep2 cells measured up to 10 uM after 48 hrs by MTT assay. The format is functional, cell-based. (In general: Tetrazolium dyes change colour on reduction, which living cells bring about.)
Assay [10] is described as follows: Binding affinity to Bcl2 G-quadraplex DNA (unknown origin) assessed as melting temprature at 5 uM by circular dichroism spectroscopic analysis in the presence of KCl and NaCl.

As for `NCCOc1cc(C(=O)Nc2cc(OCCN)c3ccccc3n2)nc(C(=O)Nc2cc(OCCN)c3ccccc3n2)c1`, the results for the Ka in assay [1], in assay [2] and in [3] were 6.97 ×10⁵ L/mol, 1.52 ×10⁵ L/mol and 1.36 ×10⁵ L/mol, respectively. The Ratio in assay [4] and in [5] was 4 each time.
`CN(C)CCOc1cc(NC(=O)c2cc(OCCN)cc(C(=O)Nc3cc(OCCN(C)C)c4ccccc4n3)n2)nc2ccccc12`: the values for the Tm (in assay [6]; in the assay filed under Homo sapiens; in assay [10]) were 56 °C, 68 °C and 71 °C, respectively. In addition, the results for the Ka in assay [1], in assay [2] and in [3] were 4.29 ×10⁵ L/mol, 0.66 ×10⁵ L/mol and 0.28 ×10⁵ L/mol, respectively. The outcome with HEp-2 [7] and with HEp-2 [9] was Active. Besides, the Activity result with HEp-2 [8] was “Dose-dependent effect”. Further, the Ratio in assay [4] and in assay [5] was 6.5 in each case.
